Experimental data from PubChem BioAssay (NCI).
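All cell lines were grown in 96-well plates and treated with compound for 48 hours. GI50 is the concentration that inhibits growth by half. The concentration for full growth arrest is given as TGI.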

Legend:
Assay in all cases: inhibition of tumour cell growth, NCI panel, 48 h
[1] = system: K-562 leukemia
[2] = system: HT29 colon
[3] = system: EKVX NSCLC
[4] = system: SNB-19 CNS
[5] = system: U251 CNS
[6] = system: A498 renal
[7] = system: IGROV1 ovarian
[8] = system: OVCAR-5 ovarian
[9] = system: SN12C renal
[10] = system: UACC-62 melanoma
[11] = system: 786-0 renal
[12] = system: NCI-H23 lung
[13] = system: A549 NSCLC
[14] = system: NCI-H460 lung
[15] = system: OVCAR-3 ovarian
[16] = system: OVCAR-4 ovarian
[17] = system: HOP-92 NSCLC
[18] = system: DU-145 prostate
[19] = system: HL-60(TB) leukemia
[20] = system: SR leukemia
[21] = system: SK-MEL-2 melanoma
[22] = system: KM12 colon
[23] = system: NCI-H226 lung
[24] = system: UO-31 renal
[25] = system: MALME-3M melanoma
[26] = system: CCRF-CEM leukemia
[27] = system: RPMI-8226 leukemia
[28] = system: SK-OV-3 ovarian
[29] = system: SF-539 CNS
[30] = system: SF-295 CNS
[31] = system: SNB-75 CNS
[32] = system: HS 578T breast
[33] = system: NCI/ADR-RES ovarian
[34] = system: LOX IMVI melanoma
[35] = system: T-47D breast
[36] = system: HCT-116 colon
[37] = system: BT-549 breast
[38] = system: CAKI-1 renal
[39] = system: SK-MEL-28 melanoma
[40] = system: MOLT-4 leukemia
[41] = system: UACC-257 melanoma
[42] = system: COLO 205 colon
[43] = system: TK-10 renal
[44] = system: HCC-2998 colon
[45] = system: SK-MEL-5 melanoma
[46] = system: NCI-H522 lung
[47] = system: MDA-MB-435
[48] = system: HCT-15 colon
[49] = system: PC-3 prostate
[50] = system: OVCAR-8 ovarian
[51] = system: RXF 393 renal
[52] = system: SW-620 colon
[53] = system: SF-268 CNS
[54] = system: MCF7 breast
[55] = system: HOP-62 NSCLC
[56] = system: MDA-MB-231 breast
[57] = system: ACHN renal

O=c1cc(NCC(O)CN2CCOCC2)n(Cc2ccccc2)c(=O)n1Cc1ccccc1 (centres undefined)
GI50 [1]: 30.8 µM | TGI [1]: > 100 µM | GI50 [2]: 18.8 µM | TGI [2]: 41.6 µM | GI50 [3]: 70.6 µM | TGI [3]: > 100 µM | GI50 [4]: > 100 µM | TGI [4]: > 100 µM | GI50 [5]: 47.6 µM | TGI [5]: > 100 µM | GI50 [6]: 49.3 µM | TGI [6]: > 100 µM | GI50 [7]: 33.5 µM | TGI [7]: 86.3 µM | GI50 [8]: > 100 µM | TGI [8]: > 100 µM | GI50 [9]: 42.3 µM | TGI [9]: > 100 µM | GI50 [10]: 22.7 µM | TGI [10]: 63.3 µM | GI50 [11]: 41.4 µM | TGI [11]: > 100 µM | GI50 [12]: 42.5 µM | TGI [12]: > 100 µM | GI50 [13]: 53.5 µM | TGI [13]: > 100 µM | GI50 [14]: 44.2 µM | TGI [14]: > 100 µM | GI50 [15]: 56.2 µM | TGI [15]: > 100 µM | GI50 [16]: 39.9 µM | TGI [16]: > 100 µM | GI50 [17]: 21.7 µM | TGI [17]: 77.1 µM | GI50 [18]: 51.7 µM | TGI [18]: > 100 µM | GI50 [19]: 12.6 µM | TGI [19]: > 100 µM | GI50 [20]: 19.8 µM | TGI [20]: 49.3 µM | GI50 [21]: > 100 µM | TGI [21]: > 100 µM | GI50 [22]: 36.1 µM | TGI [22]: > 100 µM | GI50 [23]: 56.8 µM | TGI [23]: > 100 µM | GI50 [24]: 27.3 µM | TGI [24]: 85.8 µM | GI50 [25]: 26.9 µM | TGI [25]: 77.3 µM | GI50 [26]: 36.9 µM | TGI [26]: > 100 µM | GI50 [27]: 28.3 µM | TGI [27]: 78 µM | GI50 [28]: > 100 µM | TGI [28]: > 100 µM | GI50 [29]: 60.2 µM | TGI [29]: > 100 µM | GI50 [30]: 41.2 µM | TGI [30]: > 100 µM | GI50 [31]: 31.8 µM | TGI [31]: 91.3 µM | GI50 [32]: 37.8 µM | TGI [32]: > 100 µM | GI50 [33]: 65.7 µM | TGI [33]: > 100 µM | GI50 [34]: 37.8 µM | TGI [34]: > 100 µM | GI50 [35]: 61 µM | TGI [35]: > 100 µM | GI50 [36]: 34.8 µM | TGI [36]: > 100 µM | GI50 [37]: 45.9 µM | TGI [37]: > 100 µM | GI50 [38]: 85.9 µM | TGI [38]: > 100 µM | GI50 [39]: 28.7 µM | TGI [39]: 70.3 µM | GI50 [40]: 27.8 µM | TGI [40]: > 100 µM | GI50 [41]: 30.2 µM | TGI [41]: 85.8 µM | GI50 [42]: 23.5 µM | TGI [42]: 58.6 µM | GI50 [43]: > 100 µM | TGI [43]: > 100 µM | GI50 [44]: 34.9 µM | TGI [44]: > 100 µM | GI50 [45]: 19.2 µM | TGI [45]: 35 µM | GI50 [46]: 28.1 µM | TGI [46]: 72 µM | GI50 [47]: 59.7 µM | TGI [47]: > 100 µM | GI50 [48]: 45.5 µM | TGI [48]: > 100 µM | GI50 [49]: 33.7 µM | TGI [49]: > 100 µM | GI50 [50]: 72.8 µM | TGI [50]: > 100 µM | GI50 [51]: 30.5 µM | TGI [51]: 92.5 µM | GI50 [52]: 62.5 µM | TGI [52]: > 100 µM | GI50 [53]: 63.6 µM | TGI [53]: > 100 µM | GI50 [54]: 41.8 µM | TGI [54]: > 100 µM | GI50 [55]: 34.2 µM | TGI [55]: > 100 µM | GI50 [56]: 19.2 µM | TGI [56]: 53.6 µM | GI50 [57]: 49.8 µM | TGI [57]: > 100 µM
